In test [1] the target is Tyrosine-protein kinase ABL2 (Homo sapiens) (UniProt P42684). Put plainly: Inhibition of ABL2 (unknown origin) assessed as residual activity at 1000 nM by KINOMEscan analysis relative to control.
Test [2] deals with Activin receptor type-2A (Homo sapiens) (UniProt P27037). Kind of test: Inhibition of ACVR2A (unknown origin) assessed as residual activity at 1000 nM by KINOMEscan analysis relative to control.
In test [3] the target is Cyclin-dependent kinase 18 (Homo sapiens) (UniProt Q07002). Put plainly: Inhibition of PCTK3 (unknown origin) assessed as residual activity at 1000 nM by KINOMEscan analysis relative to control.
Sequence of Cyclin-dependent kinase 18 (Homo sapiens) (Q07002 whole entry): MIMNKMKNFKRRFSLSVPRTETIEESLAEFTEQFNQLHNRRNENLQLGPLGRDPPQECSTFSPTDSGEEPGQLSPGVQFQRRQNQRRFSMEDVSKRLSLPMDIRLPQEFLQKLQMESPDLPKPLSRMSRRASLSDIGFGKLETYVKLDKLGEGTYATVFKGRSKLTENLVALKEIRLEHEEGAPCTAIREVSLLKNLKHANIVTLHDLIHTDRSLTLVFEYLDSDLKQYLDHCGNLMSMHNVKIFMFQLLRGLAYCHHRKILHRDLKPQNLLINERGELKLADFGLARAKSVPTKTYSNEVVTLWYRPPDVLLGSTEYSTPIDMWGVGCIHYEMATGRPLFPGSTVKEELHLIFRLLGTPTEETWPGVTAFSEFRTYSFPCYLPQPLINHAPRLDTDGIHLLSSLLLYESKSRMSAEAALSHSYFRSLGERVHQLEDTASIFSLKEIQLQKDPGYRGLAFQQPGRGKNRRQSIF
For test [4], the target named is MAP kinase-activated protein kinase 2 (Homo sapiens) (UniProt P49137). Put plainly: Inhibition of MAPKAPK2 (unknown origin) assessed as residual activity at 1000 nM by KINOMEscan analysis relative to control.
Sequence of MAP kinase-activated protein kinase 2 (Homo sapiens) (P49137 whole entry, looked up): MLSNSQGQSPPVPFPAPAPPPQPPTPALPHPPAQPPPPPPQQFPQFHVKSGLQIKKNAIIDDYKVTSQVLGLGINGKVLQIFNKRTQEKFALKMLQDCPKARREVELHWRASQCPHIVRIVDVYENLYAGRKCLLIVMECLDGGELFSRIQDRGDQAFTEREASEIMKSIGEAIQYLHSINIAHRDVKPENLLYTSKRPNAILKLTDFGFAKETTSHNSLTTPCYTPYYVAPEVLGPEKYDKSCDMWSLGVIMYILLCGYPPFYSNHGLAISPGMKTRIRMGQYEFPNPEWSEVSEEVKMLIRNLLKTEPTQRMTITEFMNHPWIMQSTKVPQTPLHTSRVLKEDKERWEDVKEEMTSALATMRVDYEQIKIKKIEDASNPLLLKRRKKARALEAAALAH
Test [5] addresses Myosin light chain kinase, smooth muscle (Homo sapiens) (UniProt Q15746). Kind of test: Inhibition of MYLK (unknown origin) assessed as residual activity at 1000 nM by KINOMEscan analysis relative to control.
Test [6] addresses T1, Tyrosine-protein kinase JAK3 (Homo sapiens) (UniProt P52333).
T1 sequence (whole entry): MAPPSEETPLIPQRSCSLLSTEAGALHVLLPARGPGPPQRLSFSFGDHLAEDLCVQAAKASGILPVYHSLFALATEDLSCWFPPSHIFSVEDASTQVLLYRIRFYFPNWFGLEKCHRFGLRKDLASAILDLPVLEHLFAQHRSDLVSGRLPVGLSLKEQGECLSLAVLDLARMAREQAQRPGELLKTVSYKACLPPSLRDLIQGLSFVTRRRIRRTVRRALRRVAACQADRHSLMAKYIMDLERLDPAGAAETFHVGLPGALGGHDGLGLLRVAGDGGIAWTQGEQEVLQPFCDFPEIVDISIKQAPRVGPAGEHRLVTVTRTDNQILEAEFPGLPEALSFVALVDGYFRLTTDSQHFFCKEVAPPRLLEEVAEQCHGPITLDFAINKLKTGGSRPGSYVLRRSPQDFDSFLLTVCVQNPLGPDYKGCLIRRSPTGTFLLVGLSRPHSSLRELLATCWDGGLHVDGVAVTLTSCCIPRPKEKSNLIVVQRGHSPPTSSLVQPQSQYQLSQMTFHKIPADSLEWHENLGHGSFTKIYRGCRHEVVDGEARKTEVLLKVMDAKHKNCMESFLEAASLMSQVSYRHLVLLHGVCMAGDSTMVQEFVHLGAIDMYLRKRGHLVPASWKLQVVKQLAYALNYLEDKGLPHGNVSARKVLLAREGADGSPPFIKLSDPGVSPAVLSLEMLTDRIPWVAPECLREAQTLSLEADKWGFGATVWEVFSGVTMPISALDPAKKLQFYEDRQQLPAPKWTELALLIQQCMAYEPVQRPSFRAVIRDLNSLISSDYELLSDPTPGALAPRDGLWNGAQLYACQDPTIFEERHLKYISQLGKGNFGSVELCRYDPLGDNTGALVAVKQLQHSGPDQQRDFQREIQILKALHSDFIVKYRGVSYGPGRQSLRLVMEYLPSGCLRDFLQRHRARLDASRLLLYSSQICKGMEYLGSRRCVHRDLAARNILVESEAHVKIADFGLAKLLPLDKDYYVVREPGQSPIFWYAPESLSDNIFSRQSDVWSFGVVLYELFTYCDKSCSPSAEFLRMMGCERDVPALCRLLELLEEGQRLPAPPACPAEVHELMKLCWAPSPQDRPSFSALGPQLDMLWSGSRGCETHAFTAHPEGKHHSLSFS
Put plainly: Inhibition of JAK3 JH1 catalytic domain (unknown origin) assessed as residual activity at 1000 nM by KINOMEscan analysis relative to control.

For test [7], the target named is T2, Serine/threonine-protein kinase BRSK1 (Homo sapiens) (UniProt Q8TDC3).
T2 sequence (whole entry): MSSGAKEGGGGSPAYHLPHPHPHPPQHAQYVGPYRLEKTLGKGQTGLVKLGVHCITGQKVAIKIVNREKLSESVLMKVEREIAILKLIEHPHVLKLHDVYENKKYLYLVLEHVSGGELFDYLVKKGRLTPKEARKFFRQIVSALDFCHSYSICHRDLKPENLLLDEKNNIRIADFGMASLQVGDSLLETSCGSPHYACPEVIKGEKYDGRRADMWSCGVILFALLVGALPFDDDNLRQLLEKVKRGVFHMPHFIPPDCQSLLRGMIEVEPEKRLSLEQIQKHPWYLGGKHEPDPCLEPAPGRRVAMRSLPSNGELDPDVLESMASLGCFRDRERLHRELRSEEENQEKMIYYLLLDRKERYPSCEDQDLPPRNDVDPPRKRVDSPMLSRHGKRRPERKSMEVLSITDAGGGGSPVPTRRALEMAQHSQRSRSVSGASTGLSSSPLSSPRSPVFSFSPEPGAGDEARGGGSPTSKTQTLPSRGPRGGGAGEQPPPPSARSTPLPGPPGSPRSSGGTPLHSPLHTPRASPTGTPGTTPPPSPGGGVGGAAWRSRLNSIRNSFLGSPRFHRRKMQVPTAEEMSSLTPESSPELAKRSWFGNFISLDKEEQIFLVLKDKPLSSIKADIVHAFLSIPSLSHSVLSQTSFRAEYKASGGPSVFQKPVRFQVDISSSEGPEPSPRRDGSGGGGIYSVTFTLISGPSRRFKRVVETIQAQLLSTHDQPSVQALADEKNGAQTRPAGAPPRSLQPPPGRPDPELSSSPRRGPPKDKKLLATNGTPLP
Put plainly: Inhibition of BRSK1 (unknown origin) assessed as residual activity at 1000 nM by KINOMEscan analysis relative to control.

For test [8], the target named is Calcium-dependent protein kinase 1 (Plasmodium falciparum) (UniProt P62344). Put plainly: Inhibition of Plasmodium falciparum CDPK1 assessed as residual activity at 1000 nM by KINOMEscan analysis relative to control.
Sequence of Calcium-dependent protein kinase 1 (Plasmodium falciparum) (P62344 2-524 limits assumed): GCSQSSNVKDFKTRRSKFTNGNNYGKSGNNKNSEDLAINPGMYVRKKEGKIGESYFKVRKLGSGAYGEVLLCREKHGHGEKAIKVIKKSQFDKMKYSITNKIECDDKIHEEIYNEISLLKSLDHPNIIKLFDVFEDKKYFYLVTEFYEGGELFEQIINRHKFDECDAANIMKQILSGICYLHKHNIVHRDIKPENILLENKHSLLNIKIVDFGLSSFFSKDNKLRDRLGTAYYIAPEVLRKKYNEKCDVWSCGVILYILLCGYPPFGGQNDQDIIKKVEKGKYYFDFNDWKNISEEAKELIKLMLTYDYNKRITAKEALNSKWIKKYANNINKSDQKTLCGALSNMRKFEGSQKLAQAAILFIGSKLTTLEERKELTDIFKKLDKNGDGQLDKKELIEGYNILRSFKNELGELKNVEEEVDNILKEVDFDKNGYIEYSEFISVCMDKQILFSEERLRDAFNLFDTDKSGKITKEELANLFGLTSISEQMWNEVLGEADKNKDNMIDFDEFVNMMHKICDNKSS
Test [9] concerns ALK tyrosine kinase receptor (Homo sapiens), Q9UM73 [L1196M]. Kind of test: Inhibition of ALK L1196M mutant (unknown origin) assessed as residual activity at 1000 nM by KINOMEscan analysis relative to control.
Test [10] deals with Vascular endothelial growth factor receptor 2 (Homo sapiens) (UniProt P35968). Put plainly: Inhibition of VEGFR2 (unknown origin) assessed as residual activity at 1000 nM by KINOMEscan analysis relative to control.
Sequence of Vascular endothelial growth factor receptor 2 (Homo sapiens) (P35968 whole entry): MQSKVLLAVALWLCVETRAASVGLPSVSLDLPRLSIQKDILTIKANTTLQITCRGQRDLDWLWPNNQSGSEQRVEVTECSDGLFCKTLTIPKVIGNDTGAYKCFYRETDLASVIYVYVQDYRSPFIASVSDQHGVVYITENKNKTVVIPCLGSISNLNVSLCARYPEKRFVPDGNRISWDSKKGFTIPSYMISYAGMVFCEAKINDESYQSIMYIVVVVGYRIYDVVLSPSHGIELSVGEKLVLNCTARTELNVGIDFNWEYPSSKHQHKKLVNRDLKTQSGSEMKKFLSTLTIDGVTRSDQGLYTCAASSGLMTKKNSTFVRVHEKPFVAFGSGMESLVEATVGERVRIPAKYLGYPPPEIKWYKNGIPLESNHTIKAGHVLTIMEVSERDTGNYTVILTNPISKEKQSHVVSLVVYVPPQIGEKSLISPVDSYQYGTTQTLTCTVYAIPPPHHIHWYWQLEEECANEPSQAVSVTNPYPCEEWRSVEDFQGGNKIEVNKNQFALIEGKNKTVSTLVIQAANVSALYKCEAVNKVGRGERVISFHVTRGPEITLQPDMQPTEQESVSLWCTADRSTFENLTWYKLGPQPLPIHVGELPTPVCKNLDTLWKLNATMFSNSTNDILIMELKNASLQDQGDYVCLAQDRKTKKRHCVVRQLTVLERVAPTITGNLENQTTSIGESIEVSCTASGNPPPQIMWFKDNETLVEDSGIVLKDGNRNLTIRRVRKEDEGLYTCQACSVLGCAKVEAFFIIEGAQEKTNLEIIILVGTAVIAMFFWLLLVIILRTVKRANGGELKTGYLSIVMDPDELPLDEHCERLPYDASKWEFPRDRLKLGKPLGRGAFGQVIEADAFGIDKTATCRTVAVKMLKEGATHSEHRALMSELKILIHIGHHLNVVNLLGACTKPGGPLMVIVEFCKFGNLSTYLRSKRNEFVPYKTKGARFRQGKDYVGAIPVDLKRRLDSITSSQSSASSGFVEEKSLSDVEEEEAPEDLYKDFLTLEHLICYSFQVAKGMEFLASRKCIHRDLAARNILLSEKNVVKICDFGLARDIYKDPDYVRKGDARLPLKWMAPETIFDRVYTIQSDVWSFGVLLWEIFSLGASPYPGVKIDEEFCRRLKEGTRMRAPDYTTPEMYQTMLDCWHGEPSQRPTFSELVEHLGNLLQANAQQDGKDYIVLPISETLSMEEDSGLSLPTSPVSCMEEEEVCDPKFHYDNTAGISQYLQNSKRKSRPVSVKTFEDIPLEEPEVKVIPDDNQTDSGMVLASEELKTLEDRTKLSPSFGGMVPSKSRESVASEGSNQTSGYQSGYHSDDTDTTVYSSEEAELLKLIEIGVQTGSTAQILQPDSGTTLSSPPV

Here are results for 2 compounds from ChEMBL document CHEMBL5678818, “Discovery of potent SOS1 inhibitors that block RAS activation via disruption of the RAS-SOS1 interaction” (Proc Natl Acad Sci U S A, 2019).

Sequence of Myosin light chain kinase, smooth muscle (Homo sapiens) (Q15746 whole entry): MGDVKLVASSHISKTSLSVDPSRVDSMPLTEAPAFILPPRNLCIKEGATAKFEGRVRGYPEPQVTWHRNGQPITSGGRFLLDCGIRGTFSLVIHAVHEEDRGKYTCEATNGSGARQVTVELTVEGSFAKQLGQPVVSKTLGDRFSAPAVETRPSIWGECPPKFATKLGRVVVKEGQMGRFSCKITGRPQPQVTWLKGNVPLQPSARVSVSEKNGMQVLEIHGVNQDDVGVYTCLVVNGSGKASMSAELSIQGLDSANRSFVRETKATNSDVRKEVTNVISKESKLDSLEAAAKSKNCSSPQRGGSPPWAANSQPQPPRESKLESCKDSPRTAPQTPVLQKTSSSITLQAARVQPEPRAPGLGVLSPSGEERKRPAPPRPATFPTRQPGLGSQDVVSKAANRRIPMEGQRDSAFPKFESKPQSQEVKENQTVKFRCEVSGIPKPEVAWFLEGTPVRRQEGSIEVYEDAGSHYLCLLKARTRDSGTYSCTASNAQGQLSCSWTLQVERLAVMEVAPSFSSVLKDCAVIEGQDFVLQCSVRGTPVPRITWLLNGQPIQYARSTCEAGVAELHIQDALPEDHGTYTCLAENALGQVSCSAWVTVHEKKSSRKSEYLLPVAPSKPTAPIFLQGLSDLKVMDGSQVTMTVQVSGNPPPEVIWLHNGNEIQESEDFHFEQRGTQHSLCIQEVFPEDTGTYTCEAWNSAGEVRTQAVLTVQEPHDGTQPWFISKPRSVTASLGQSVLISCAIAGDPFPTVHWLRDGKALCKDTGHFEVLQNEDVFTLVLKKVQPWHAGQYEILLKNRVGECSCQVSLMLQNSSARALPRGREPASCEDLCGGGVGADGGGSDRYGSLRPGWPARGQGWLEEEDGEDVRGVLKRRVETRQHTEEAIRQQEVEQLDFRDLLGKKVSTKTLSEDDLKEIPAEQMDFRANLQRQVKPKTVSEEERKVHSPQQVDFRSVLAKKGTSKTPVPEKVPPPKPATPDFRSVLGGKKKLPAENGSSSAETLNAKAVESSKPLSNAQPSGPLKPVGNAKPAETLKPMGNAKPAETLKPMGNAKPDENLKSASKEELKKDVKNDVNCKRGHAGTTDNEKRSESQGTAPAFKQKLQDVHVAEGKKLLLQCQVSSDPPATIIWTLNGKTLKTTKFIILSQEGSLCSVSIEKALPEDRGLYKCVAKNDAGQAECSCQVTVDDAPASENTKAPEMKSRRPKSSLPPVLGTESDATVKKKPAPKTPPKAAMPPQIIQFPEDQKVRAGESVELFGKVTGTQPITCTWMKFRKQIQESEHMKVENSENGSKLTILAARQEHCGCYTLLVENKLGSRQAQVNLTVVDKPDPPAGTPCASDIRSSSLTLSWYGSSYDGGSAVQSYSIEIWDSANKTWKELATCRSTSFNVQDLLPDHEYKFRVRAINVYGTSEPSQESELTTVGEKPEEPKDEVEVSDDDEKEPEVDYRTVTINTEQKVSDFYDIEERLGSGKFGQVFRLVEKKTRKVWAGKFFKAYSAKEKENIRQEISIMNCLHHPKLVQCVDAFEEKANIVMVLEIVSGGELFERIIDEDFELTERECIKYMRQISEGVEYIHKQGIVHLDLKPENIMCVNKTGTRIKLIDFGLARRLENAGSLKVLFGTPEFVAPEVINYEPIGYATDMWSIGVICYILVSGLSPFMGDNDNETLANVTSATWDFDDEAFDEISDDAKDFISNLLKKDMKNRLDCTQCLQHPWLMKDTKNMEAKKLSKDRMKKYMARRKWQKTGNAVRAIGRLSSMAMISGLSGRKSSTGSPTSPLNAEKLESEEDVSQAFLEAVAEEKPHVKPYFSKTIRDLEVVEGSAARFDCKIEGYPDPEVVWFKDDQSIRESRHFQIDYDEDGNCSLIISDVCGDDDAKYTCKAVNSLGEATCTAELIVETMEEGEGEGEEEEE

In the case of `COc1cc2nc(C)nc(N[C@H](C)c3cccc(-c4cn[nH]c4)c3)c2cc1OC`, the Activity in [1] was found to be 73%; in test [2], 90%; in test [3], 99%; in test [4] it was 99%; in test [5] it was 97%; in [6], 100%. In addition, the Activity amounted to 100% in test [7], 81% in test [8], 67% in [9] and 100% in test [10].
Regarding `COc1cc2ncnc(N[C@H](C)c3cccc4ccccc34)c2cc1OC`, the Activity in test [1] was 100%; in [2], 100%; in [3], 100%; in test [4], 100%; in [5], 88%; in [6], 81%. Moreover, the Activity in [7] was determined as 100%; in test [8], 62%; in [9], 80%; in test [10], 78%.
